pIC50: −log10 of the molar value.
What was measured:
PRMT1 = PRMT1 (Homo sapiens, UniProt Q99873); experiment: PRMT1 enzyme activity test; assay type: biochemical; conditions: 0.5 nM PRMT1, 3H-SAM, peptide
Method in brief: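 Radiometric methylation assay: 0.5 nM PRMT1 preincubated 15 min at room temperature with compound (10-point 3-fold series, 1% DMSO) in pH 8.0 Tris buffer with Tween-20 and DTT. 0.25 uM ³H-SAM and 0.1 uM biotinylated peptide then reacted 120 min. Product captured on streptavidin FlashPlate and counted; IC50 from four-parameter fit of % inhibition.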

Toledo cells = experiment: Toledo cell proliferation inhibition assay; assay type: cell-based; conditions: Homo sapiens, Toledo, 144 h; six-day assay, CellTiter-Glo
Method in brief: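 Toledo cells seeded at 2000 cells/well in RPMI 1640 + 10% FBS and incubated with compound for six days at 37° C, 5% CO2. Viability was then read by CellTiter-Glo luminescence after 30 min orbital mixing.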

MMA in RKO cells = experiment: RKO In Cell Western assay (MMA primary antibody); assay type: cell-based; conditions: Homo sapiens, 72 hours, read-out: RKO ICW_EC30
Description: RKO was seeded at a concentration of 20,000 cells/ml into a polylysine-coated 96-well plate (Corning #3599), with 2,000 cells per well and 100 μL of culture mediumper well. 500 nL of compound was added to the 96-well plate. 3) The 96-well plate was incubated in a 37° C., 5% CO2 incubator for 72 hours. After three days, the 96-well plate was taken from the incubator, 100 μL of 8% paraformaldehyde solution was added to each well, and the plate was placed at room temperature for 15 min. After 15 min, the liquid in the plate was shaken out and the plate was washed three times with phosphate buffer (1*PBS). The liquid in the plate was shaken out and 200 μL of membrane-breaking buffer (0.1% (v/v) Tween-20 in PBS) was added and the plate was incubated on a shaker for 30 min. After half an hour, the liquid in the plate was shaken out, and blocking buffer was added and the plate was incubated for two hours at room temperature with shaking. After that, the liquid in the plate was shaken off, and the blocking solution containing primary antibody (MMA primary antibody, CST #8711S, 1:1000 v/v) was added to the 96-well plate and the plate was incubated at 4° C. overnight with shaking. The next day, the plate was washed three times with washing solution (0.05% (v/v) Tween-20 in PBS), and a blocking solution containing secondary antibody (goat anti-rabbit IgG (H+L) Invitrogen #31460, 1:10,000 v/v) was added and the plate was incubated for two hours at room temperature. Afterwards, the 96-well plate was washed four times with washing solution. The TMB mixture was added to the 96-well plate and then the plate was incubated for 15 minutes at room temperature with shaking. After that, the reaction terminating solution was added, and the value was read at OD450 nm using an microplate reader. The plate was washed three times with washing solution, and 50 μL of janusgreen staining solution was added, and the plate was incubated for 15 minutes at room temperature with shaking. The reaction was washed ten times with water until no color residue was left. 200 μL of 0.5 M hydrochloric acid solution was added to each well and the plate was incubated for 10 min at room temperature. The value was read at OD595 nm using Flexstation.
Firstly, the ratio OD450/OD595 was calculated for each well
Each plate had six DMSO negative control groups (ZPE) and six 10 μM positive control groups (HPE), and the average of the control group ratios was used to determine the percentage of activation for each test well. The compounds to be tested were triple diluted with DMSO for a total of 8 concentration points with a starting concentration of 5 μM. The equation for calculating the activation percentage of each test well was: […]

PRMT1, sequence (Q99873 whole entry): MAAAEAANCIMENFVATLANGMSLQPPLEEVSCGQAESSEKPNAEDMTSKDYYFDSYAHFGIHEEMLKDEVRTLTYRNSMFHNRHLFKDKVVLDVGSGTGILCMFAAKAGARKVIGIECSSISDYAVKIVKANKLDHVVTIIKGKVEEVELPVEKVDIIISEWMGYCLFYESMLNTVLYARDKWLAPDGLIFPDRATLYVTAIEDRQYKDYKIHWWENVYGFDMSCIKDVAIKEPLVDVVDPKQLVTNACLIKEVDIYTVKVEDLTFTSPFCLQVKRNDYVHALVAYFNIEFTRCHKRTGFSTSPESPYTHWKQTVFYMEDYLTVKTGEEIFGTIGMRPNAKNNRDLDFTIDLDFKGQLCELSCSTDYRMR

Row | Structure (SMILES) | pIC50 (PRMT1) | pIC50 (Toledo cells) | EC30 (MMA in RKO cells) [nM]
1 | CNCCN(C)Cc1ncccc1[C@H]1CC[C@]2(CC1)COC(C)(C)C2 [P157] | > 7.30 | > 6.00 | 250 to 2500
2 | CNCCN(C)Cc1ccc(N)nc1C1CCN(c2cccc(C)c2)CC1 [P226, N^1-((6-amino-2-(1-(m-tolyl)piperidin-4-yl)pyridin-3-yl)methyl)-N^1,N^2-dimethylethane-1,2-diamine] | > 7.30 | > 6.00 | < 250
3 | CNCCN(C)Cc1ncccc1N1CCc2ccc(N)cc2CC1 [P243] | > 7.30 | > 6.00 | 250 to 2500
4 | CNCCN(C)Cc1ncccc1N1CCC(COc2cccc(C(F)(F)F)c2)CC1 [P131] | > 7.30 | > 6.00 | 250 to 2500
5 | CNCCN(C)Cc1ccccc1[C@H]1CC[C@@]2(CCCOC2)CC1 [P053] | > 7.30 | > 6.00 | 250 to 2500
6 | CCOCC1(Oc2cccc(C(F)(F)F)c2)CCN(c2cccnc2CN(C)CCNC)CC1 [P184] | 6.30 to 7.30 | > 6.00 | > 2500
7 | CNCCN(C)Cc1ccc(F)cc1C1CCc2cc(F)c(F)cc2CC1 [P007] | > 7.30 | > 6.00 | < 250
8 | CNCCN(C)Cc1ncccc1N1CCc2ccc(OC)cc2CC1 [P186] | > 7.30 | > 6.00 | 250 to 2500
9 | CNCCN(C)Cc1cc(F)ccc1C1CCN(S(=O)(=O)c2ccccc2[N+](=O)[O-])CC1 [P325] | > 7.30 | > 6.00 | 250 to 2500
10 | CNCCN(C)Cc1ncccc1C1CCN(c2ccccc2C)CC1 [P095] | > 7.30 | > 6.00 | < 250
11 | CNCCN(C)Cc1ccccc1[C@H]1CC[C@@]2(CCCCO2)CC1 [P050] | > 7.30 | > 6.00 | 250 to 2500
12 | CNCCN(C)Cc1ncccc1N1CCC(Oc2ccc(C(F)(F)F)cc2)CC1 [P142] | > 7.30 | > 6.00 | 250 to 2500
13 | CCOCC1(COCC)CCN(c2ccccc2CN(C)CCNC)CC1 [P136] | > 7.30 | > 6.00 | 250 to 2500
14 | CNCCN(C)Cc1ncccc1C1CCN(c2nccc(N3CCCC3)n2)CC1 [P252] | > 7.30 | > 6.00 | 250 to 2500
15 | CNCCN(C)Cc1ncccc1[C@H]1CC[C@@]2(CC1)COC(C)(C)C2 [P158] | > 7.30 | > 6.00 | < 250
16 | CCOCC1(COCC)CCC(c2ccccc2CN(C)CCNC)CC1 [P114] | > 7.30 | > 6.00 | < 250
17 | CNCCN(C)Cc1ccc(F)cc1C1CCc2cc(F)cc(F)c2CC1 (stereo not drawn) [P008] | > 7.30 | > 6.00 | 250 to 2500
18 | CCC1CCC(c2ccccc2CN(C)CCNC)CC1 (stereo not drawn) [P015] | > 7.30 | > 6.00 | 250 to 2500
19 | CNCCN(C)Cc1ccc(C(C)O)cc1C1CCN(c2cccc(C)c2)CC1 (stereo not drawn) [P083] | > 7.30 | > 6.00 | < 250
20 | CNCCN(C)Cc1cc(F)ccc1[C@H]1CC[C@H](c2cccc(C)c2)CC1 [P005] | > 7.30 | > 6.00 | 250 to 2500
21 | CNCCN(C)Cc1ncccc1C1CCN(c2ccccc2OC)CC1 [P170] | > 7.30 | > 6.00 | 250 to 2500
22 | CNCCN(C)Cc1ncccc1N1CCC(C)(COc2ccccc2)CC1 [P149] | > 7.30 | > 6.00 | 250 to 2500
23 | CNCCN(C)Cc1cc(F)ccc1C1CCc2ccc(C(F)(F)F)cc2CC1 (stereo not drawn) [P001] | > 7.30 | > 6.00 | 250 to 2500
24 | CNCCN(C)Cc1ncccc1N1CCc2ccc(C#N)cc2CC1 [P225] | > 7.30 | > 6.00 | < 250
25 | CCOCC1(COCC)CCC(c2cc3c(cc2CN(C)CCNC)CNC3=O)CC1 [P258] | > 7.30 | > 6.00 | < 250
26 | CNCCN(C)Cc1cc(F)ccc1C1CCc2cc(F)c(F)cc2CC1 [P009] | > 7.30 | > 6.00 | 250 to 2500

Row | Structure (SMILES) | pIC50 (PRMT1) | pIC50 (Toledo cells) | EC30 (MMA in RKO cells) [nM]
27 | CCOC[C@H]1CC[C@H](c2ccccc2CN(C)CCNC)CC1 [P049] | > 7.30 | > 6.00 | < 250
28 | CNCCN(C)Cc1ncccc1N1CCC(Oc2cccc(F)c2)CC1 [P179] | > 7.30 | > 6.00 | 250 to 2500
29 | CNCCN(C)Cc1ncccc1N1CCC(Oc2ccccc2)CC1 [P185] | > 7.30 | > 6.00 | 250 to 2500
30 | CNCCN(C)Cc1ncccc1C1CCN(c2cc(C)cc(C)c2)CC1 [P079] | > 7.30 | > 6.00 | < 250
31 | CCOCC1(COCC)CCC(c2ncccc2CN(C)CCNC)CC1 [P208] | > 7.30 | > 6.00 | 250 to 2500
32 | CNCCN(C)Cc1ncccc1N1CCc2ccccc2C(C)C1 (stereo not drawn) [P112] | > 7.30 | > 6.00 | 250 to 2500
33 | CNCCN(C)Cc1ccc(C)nc1C1CCN(c2cccc(C)c2)CC1 [P081, N^1,N^2-dimethyl-N1-((6-methyl-2-(1-(m-tolyl)piperidin-4-yl)pyridin-3-yl)methyl)ethane-1,2-diamine] | > 7.30 | > 6.00 | < 250
34 | CCOCC1CC=C(c2ccccc2CN(C)CCNC)CC1 (stereo not drawn) [P054] | > 7.30 | > 6.00 | < 250
35 | CNCCN(C)Cc1ncccc1C1CCN(c2ncc3ccccc3n2)CC1 [P250] | > 7.30 | > 6.00 | 250 to 2500
36 | CNCCN(C)Cc1ncccc1N1CCC(Oc2cccc(C)c2)CC1 [P171] | > 7.30 | > 6.00 | 250 to 2500
37 | CNCCN(C)Cc1ccccc1[C@H]1CC[C@]2(CCCOC2)CC1 [P052] | > 7.30 | > 6.00 | 250 to 2500
38 | CNCCN(C)Cc1ccccc1C1CCN(c2ccc(C(F)(F)F)cc2)CC1 [P069] | > 7.30 | > 6.00 | 250 to 2500
39 | CNCCN(C)Cc1ccc(F)cc1[C@H]1CC[C@H](c2cccc(C)c2)CC1 [P003] | > 7.30 | > 6.00 | < 250
40 | CNCCN(C)Cc1ccccc1C1CCN(c2cccc(C)c2)CC1 [P022] | > 7.30 | > 6.00 | < 250
41 | CNCCN(C)Cc1ncccc1N1CCC(Oc2cc(C(F)(F)F)cc(C(F)(F)F)c2)CC1 [P122] | 6.30 to 7.30 | > 6.00 | > 2500
42 | CNCCN(C)Cc1ncccc1C1CCN(c2ccc(C#N)cc2)CC1 [P202] | > 7.30 | > 6.00 | 250 to 2500
43 | CNCCN(C)Cc1ncccc1N1CCc2ccc(C(F)(F)F)cc2CC1 [P088, N^1,N^2-dimethyl-N^1-((3-(7-(trifluoromethyl)-4,5-dihydro-1H-benzo[d]azepin-3(2H)-yl)pyridin-2-yl)methyl)ethane-1,2-diamine] | > 7.30 | > 6.00 | 250 to 2500
44 | CNCCN(C)Cc1ncccc1N1CCC(Oc2cccc(C(F)F)c2)CC1 [P147] | > 7.30 | > 6.00 | 250 to 2500
45 | CNCCN(C)Cc1ncccc1N1CCc2nc(SC)nc(C)c2CC1 [P323] | > 7.30 | > 6.00 | > 2500
46 | CNCCN(C)Cc1ncccc1C1CCN(CCc2ccccc2)CC1 [P074] | > 7.30 | > 6.00 | 250 to 2500
47 | CNCCN(C)Cc1ccc(F)cc1C1CCN(c2cccc(C)c2)CC1 [P021] | > 7.30 | > 6.00 | < 250
48 | CNCCN(C)Cc1ncccc1C1CCN(c2cccc(C)c2)CC1 [P094] | > 7.30 | > 6.00 | < 250
49 | CNCCN(C)Cc1ncccc1C1CCN(c2ccc(C#N)c(C)c2)CC1 [P187] | > 7.30 | > 6.00 | < 250
50 | CNCCN(C)Cc1ncccc1N1CCC(Oc2cccc(C(F)(F)F)c2)CC1 [P141] | > 7.30 | > 6.00 | 250 to 2500
51 | CNCCN(C)Cc1ncccc1C1CCN(c2cc(C)cc(F)c2)CC1 [P085] | > 7.30 | > 6.00 | < 250
